This note sets out measurements from ChEMBL document CHEMBL1123676, “Synthetic and enzyme inhibition studies of pepstatin analogues containing hydroxyethylene and ketomethylene dipeptide isosteres” (J Med Chem, 1987).

Non-standard residues stand in square brackets, D forms with d. Residues, ends and D or L forms follow the SMILES beside them. ξ: configuration not given here. *: point of attachment. Cbz = O=C(OCc1ccccc1)*; ξL = CC(C)CC(N)C(=O)O; ξA = CC(N)C(=O)O

As usually defined, the Ki is the dissociation constant of the complex between target and ligand, obtained from inhibition or displacement. The low end stands for a stronger hold on the target, the high end for a looser hold on the target.

The target of assay [1] is T1, Pepsin A (Sus scrofa, UniProt P00791). Description: Inhibition of porcine pepsin.
T1 sequence (P00791 whole entry): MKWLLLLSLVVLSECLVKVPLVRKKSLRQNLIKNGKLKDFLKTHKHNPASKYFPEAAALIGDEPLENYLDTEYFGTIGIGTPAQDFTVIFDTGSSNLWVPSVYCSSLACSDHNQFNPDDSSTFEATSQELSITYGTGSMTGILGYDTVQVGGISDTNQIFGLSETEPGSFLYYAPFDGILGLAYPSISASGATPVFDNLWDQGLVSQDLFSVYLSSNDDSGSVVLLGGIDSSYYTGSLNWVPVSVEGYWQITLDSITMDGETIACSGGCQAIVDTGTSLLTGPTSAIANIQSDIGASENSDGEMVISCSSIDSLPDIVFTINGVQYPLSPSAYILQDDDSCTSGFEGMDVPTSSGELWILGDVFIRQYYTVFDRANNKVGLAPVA
In assay [2] the target is Pepsin A (Sus scrofa) (UniProt P00791).
Sequence of Pepsin A (Sus scrofa) (P00791 60-385 limits assumed): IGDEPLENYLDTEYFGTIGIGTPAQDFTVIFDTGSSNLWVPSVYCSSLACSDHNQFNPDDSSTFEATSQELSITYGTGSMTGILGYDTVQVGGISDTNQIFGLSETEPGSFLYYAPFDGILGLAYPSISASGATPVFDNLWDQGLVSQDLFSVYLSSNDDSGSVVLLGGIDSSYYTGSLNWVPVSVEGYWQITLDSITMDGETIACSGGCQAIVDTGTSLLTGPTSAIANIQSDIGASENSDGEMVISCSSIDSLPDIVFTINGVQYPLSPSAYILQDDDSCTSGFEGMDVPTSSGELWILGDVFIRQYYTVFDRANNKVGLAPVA
Assay [3] has the same target. The source holds these as a separate data set.
The target is the same in assay [4]. Kind of assay: The kinetic constant (Kcat)of porcine pepsin substrate Z-His-Phe-Leu-oMe was determined.
Assay [5] is described as follows: Ratio of kinetic constant kcat / KM of porcine pepsin.
Assay [6] deals with Pepsin A (Sus scrofa) (UniProt P00791). Description: The kinetic constant (Kcat)of porcine pepsin substrate Z-His-Phe-Gly-oMe was determined.
The target is the same in assay [7]. Description: The kinetic constant (Kcat)of porcine pepsin substrate Z-His-Phe-Ala-oMe was determined.
For assay [8] the target is unchanged. Description: Slow binding inhibition characteristic of the pepstatin-pepsin interaction; indicates that the binding is not slow.
The target is the same in assay [9]. Description: Slow binding inhibition characteristic of the pepstatin-pepsin interaction; - indicates that the binding is not slow.
The target in assay [10] is T1, Pepsin A. Description: Inhibitory activity against porcine pepsin substrate Z-His-Phe-DPhe-oMe was determined.
The target of assay [11] is Pepsin A (Sus scrofa) (UniProt P00791). Kind of assay: The kinetic constant (Kcat)of porcine pepsin substrate Z-His-Phe-Phe-oMe was determined.
The target in assay [12] is T1, Pepsin A. Description: Inhibitory activity against porcine pepsin was determined.

`CC(C)CCNC(=O)C(C)NC(=O)C(Cc1ccccc1)C[C@H](O)[C@H](CC(C)C)NC(=O)C(NC(=O)CC(C)C)C(C)C` (stereo not given in full): in [1], the affinity, expressed as Ki, was 2.5 nM. This lies in the single-digit nanomolar range.

In turn, `CC(C)CCNC(=O)C(C)C[C@H](O)[C@H](CC(C)C)NC(=O)C(NC(=O)CC(C)C)C(C)C` (stereo not given in full) registered an inhibition constant (Ki) in assay [1] of 27 nM. In addition, the Slow binding result in assay [2] is listed as “binding is not slow”.

For `CC(C)CCNC(=O)C(C)NC(=O)CC[C@H](O)[C@H](CC(C)C)NC(=O)C(NC(=O)CC(C)C)C(C)C` (stereo not given in full), the Slow binding result in assay [3] is given as “binding is not slow”. In addition, the affinity in assay [1], expressed as Ki, was 50 nM.

Compound `COC(=O)C(CC(C)C)NC(=O)[C@H](Cc1ccccc1)NC(=O)[C@H](Cc1c[nH]cn1)NC(=O)OCc1ccccc1` (stereo partly drawn) (Cbz-His-Phe-[ξL]-OMe) yielded a k cat in assay [4] of 5.2 ms-1. In addition, the Ratio in [5] was found to be 10.

Consider `COC(=O)CNC(=O)[C@H](Cc1ccccc1)NC(=O)[C@H](Cc1c[nH]cn1)NC(=O)OCc1ccccc1` (Cbz-His-Phe-Gly-OMe), for which the k cat in [6] came out at 2.1 ms-1. Also, the Ratio in assay [5] was found to be 1.3.

In assay [7], `COC(=O)C(C)NC(=O)[C@H](Cc1ccccc1)NC(=O)[C@H](Cc1c[nH]cn1)NC(=O)OCc1ccccc1` (stereo partly drawn) (Cbz-His-Phe-[ξA]-OMe) returned a k cat of 3.7 ms-1. For the same compound, in assay [5], the Ratio is 2.1.

`CC(C)CCNC(=O)C(C)NC(=O)[C@H](Cc1ccccc1)C[C@H](O)[C@H](CC(C)C)NC(=O)C(NC(=O)CC(C)C)C(C)C` (stereo not given in full) yielded a Ki in [1] of 140 nM. Further, the Slow binding entry in assay [8] is reported as “indicates that the binding is not slow”.

`CC(C)CCNC(=O)C(C)NC(=O)C(C)CC(=O)[C@H](CC(C)C)NC(=O)C(NC(=O)CC(C)C)C(C)C` (stereo not given in full) displayed a Ki in assay [1] of 27 nM. The Slow binding result in [9] is listed as “binding is not slow”.

`COC(=O)[C@@H](Cc1ccccc1)NC(=O)[C@H](Cc1ccccc1)NC(=O)[C@H](Cc1c[nH]cn1)NC(=O)OCc1ccccc1`: the Ki in [10] was found to be 280 µM.

Turning to `COC(=O)C(Cc1ccccc1)NC(=O)[C@H](Cc1ccccc1)NC(=O)[C@H](Cc1c[nH]cn1)NC(=O)OCc1ccccc1` (stereo not given in full), the k cat in assay [11] stood at 170 ms-1. The Ratio in assay [5] was 520.

In assay [1], `CC(C)CCNC(=O)C(C)NC(=O)CC(=O)C(CC(C)C)NC(=O)C(NC(=O)CC(C)C)C(C)C` (stereo not given) gave a Ki of 56 nM. The Slow binding result in assay [9] is listed as “binding is not slow”.

Regarding `CC(C)CCNC(=O)C(C)NC(=O)CCC(=O)[C@H](CC(C)C)NC(=O)C(NC(=O)CC(C)C)C(C)C` (stereo not given in full), the affinity in assay [1] corresponds to a Ki of 2140 nM. Moreover, the Slow binding result in [9] is reported as “binding is not slow”.

Compound `CC(C)CCNC(=O)C(C)NC(=O)[C@@H](CC(=O)[C@H](CC(C)C)NC(=O)C(NC(=O)CC(C)C)C(C)C)Cc1ccccc1` (stereo not given in full) returned a Ki in [1] of 850 nM. Besides, the Slow binding result in assay [9] is “binding is not slow”.

For `CC(C)CCNC(=O)CNC(=O)C[C@H](O)C(CC(C)C)NC(=O)C(NC(=O)CC(C)C)C(C)C` (stereo not given in full), affinity in assay [1] was put at a Ki of 56 nM. In addition, the Slow binding result in assay [9] is listed as “binding is not slow”.

In turn, `CC(C)CCNC(=O)C(C)NC(=O)C[C@H](O)C(CC(C)C)NC(=O)C(NC(=O)CC(C)C)C(C)C` (stereo not given in full) registered a Ki in assay [12] of 3 nM.

In assay [1], `CC(C)CCNC(=O)C(C)NC(=O)C(CC(=O)[C@H](CC(C)C)NC(=O)C(NC(=O)CC(C)C)C(C)C)Cc1ccccc1` (stereo not given in full) had a Ki of 72 nM. For the same compound, the Slow binding entry in assay [9] is reported as “binding is not slow”.

As for `CC(C)CCNC(=O)C(C)NC(=O)C(C)C[C@H](O)[C@H](CC(C)C)NC(=O)C(NC(=O)CC(C)C)C(C)C` (stereo not given in full), in [1], the Ki was found to be 3 nM. That is a single-digit nanomolar value.
